Measurements published in paper PMC12154284, “FYCO1 Peptide Analogs: Design and Characterization of Autophagy Inhibitors as Co-Adjuvants in Taxane Chemotherapy of Prostate Cancer” (International Journal of Molecular Sciences, 2025).

Assays:
[1] = tested on: PC cells; conditions: with Doc, cited from earlier work
From the text: (§1) Many studies have analyzed the nature of autophagy activated by Doc in PC and the impact of autophagy inhibitors on cell proliferation. The results obtained using 3-Methyladenine (3-MA) in association with Doc were contradictory. […] A more convincing result was obtained using the autophagy inhibitor CQ which enhanced the action ...

[2] = tested on: PC-3 cells; conditions: with Doc; ref [45]; cited from earlier work
From the text: as §1

[3] = molecular target: human recombinant His-tagged LC3B (Homo sapiens, UniProt Q9GZQ8); assay: MST binding to human recombinant His-tagged LC3B; conditions: Table S1
Method: A constant concentration of red-labelled LC3B (10 nM) was incubated with sixteen 1:1 serial dilutions of peptides (concentration details are consultable in the Supplementary Materials, Table S1). PBS-T (phosphate-buffered saline + 0.05% Tween™ 20), from NanoTemper Technologies, with 2.5% dimethyl sulfoxide (DMSO) (Product No. D8418; Sigma-Aldrich, Saint Louis, MO, USA) was used as buffer. After 15 min of incubation at room temperature, samples were loaded into standard capillaries (Product No. MO-K022; NanoTemper Technologies) and analyzed at 25 °C with 20% excitation power and medium MST power (40%) using the “Binding Affinity” mode available in the MO.Control v1.6 software (NanoTemper Technologies GmbH, München, Germany). Prior to Kd determination, peptide auto-fluorescence was assessed. Data analysis was performed using MO.Affinity Analysis v2.3 software (NanoTemper Technologies GmbH, München, Germany) applying the Kd model for fitting the binding curve, while the figures were generated using GraphPad Prism v8.0.2 software (GraphPad, Boston, MA, USA).
Two independent experiments were performed to determine the Kd value.
RA = Response Amplitude; SNR = Signal -to-Noise Ratio.

[4] = tested on: PC-3 cells; assay: MTT cell viability, PC-3; assay type: cell-based, Human
Method: The study was conducted on several cancer cells. Human CRPC cell lines (PC-3 and DU145) were purchased from the American Type Culture Collection (ATCC, Manassas, VA, USA) and cultured at 37 °C and 5% CO2 in RPMI 1640 (EuroClone, Milano, Italy) supplemented, respectively, with 7.5% (PC3) and 5% (DU145) FBS (Gibco, ThermoFisher Scientific, Waltham, MA, USA), 1% L-glutamine, and antibiotics (100 IU/mL penicillin G). Luminal A MCF-7 breast cancer cells (ATCC, Manassas, VA, USA) were cultured in Dulbecco’s Modified Eagle Medium/Nutrient Mixture F-12 (DMEM-F12, Gibco Laboratories, Waltham, MA, USA) supplemented with 10% fetal bovine serum (FBS, Gibco Laboratories, Waltham, MA, USA), 1% penicillin/streptomycin (Gibco Laboratories), and 1% L-glutamine (Gibco Laboratories). A549 human lung cancer cell line (ATCC, Manassas, VA, USA) were cultured in Dulbecco’s modified eagle medium (DMEM, Lonza, Switzerland) supplemented with 10% FBS (Gibco Laboratories, Waltham, MA, USA), 1% of 100 u/mL penicillin/streptomycin (Gibco Laboratories), and 1% L-glutamine (Gibco Laboratories). […]
(§2) For viability studies, MTS (Cell Titer 96 Aqueous One Solution Cell Proliferation Assay) (Promega, Nacka, Sweden) and 3-(4,5-dimethylthiazole-2-yl)-2,5-diphenyltetrazolium bromide (MTT) (Sigma-Aldrich, St. Louis, MO, USA) assays were conducted. […] The absorbance (λ = 550 nm) was measured by an EnSpire Multimode Plate reader (Perkin Elmer, Milano, Italy). The absorbance value of untreated cells was set at 100% (control), and the viability of treated cells was expressed as a percentage of the control. […] After 72 h, cell viability was assessed using an MTS assay according to the manufacturer’s protocol using a 96-well-plate spectrophotometer (Varioskan Flash Multimode Reader; ThermoFisher Scientific, Waltham, MA, USA) set at λ = 490 nm. The absorbance value of untreated cells was set at 100% (control), and the viability of treated cells was expressed as a percentage of the control. […]

[5] = tested on: DU145 cells; assay: MTT cell viability, DU145 (ATG5-deficient); assay type: cell-based, Human; conditions: 72 h, dose printed 5 mM, n = 6
Method: (§3) The study was conducted on several cancer cells. Human CRPC cell lines (PC-3 and DU145) were purchased from the American Type Culture Collection (ATCC, Manassas, VA, USA) and cultured at 37 °C and 5% CO2 in RPMI 1640 (EuroClone, Milano, Italy) supplemented, respectively, with 7.5% (PC3) and 5% (DU145) FBS (Gibco, ThermoFisher Scientific, Waltham, MA, USA), 1% L-glutamine, and antibiotics (100 IU/mL penicillin G). […]
as §2

[6] = tested on: LC3-I and LC3-II in PC-3 cells; assay: Western blot of LC3-I and LC3-II in PC-3 cells; assay type: cell-based, Human; conditions: for LC3-I / LC3-II expression, Doc/AM10 experiment: AM10, Doc (25 nM) or both
Method: (§4) PC-3 cells were plated at 2 × 10^5 cells/dish in 6 cm dishes and treated with different compounds. At the end of the treatments the cells were lysed in RIPA buffer. Protein extracts (15–35 μg) were resuspended in presence of reducing Sample buffer (Bio-Rad Laboratories, Segrate, Milano, Italy), heated at 95 °C for 5 min and separated by SDS-PAGE WB. Proteins were transferred onto nitrocellulose or PVDF membranes. After blocking with nonfat dried milk, membranes were incubated with anti-ATG5 (1:1000) (#12994) Cell Signaling Technology Inc. (Boston, MA, USA), anti-LC3 (1:1000) (L8918) (Sigma-Aldrich), anti-SQSTM1/p62 (1:2000) (PA5-20839) (Thermo Fisher Scientific, Waltham, MA, USA), anti-cleaved-caspase-3 (1:500) (#9664) Cell Signaling Technology Inc. primary antibodies overnight at 4 °C. Horseradish peroxidase (HRP) conjugated secondary anti-rabbit or anti-mouse antibodies were used for 1 h at room temperature and the membranes were processed using chemiluminescence kit Cyanagen Ultra (Cyanagen, Bologna, Italy). In each WB experiment alpha-tubulin expression (T6199) (Sigma-Aldrich, St. Louis, MO, USA) was evaluated as a protein control. Relative optical density of the bands was assessed by ImageJ software (version 1.54g). Uncropped WB images are available in the Supporting Information.

[7] = tested on: p62 in PC-3 cells; assay: Western blot of p62 (SQSTM1) in PC-3 cells; assay type: cell-based, Human; conditions: 72 h and 96 h
Method: as §4

[8] = tested on: cleaved caspase-3 in PC-3 cells; assay: Western blot of cleaved caspase-3 in PC-3 cells; assay type: cell-based, Human; conditions: AM10, Doc (25 nM) or both, 48 h
Method: as §4

[9] = tested on: MCF-7 cells; assay: MTS cell viability, MCF-7; assay type: cell-based; conditions: 72 h, 0.0025 to 5 μM, n = 4
Method: as §3, §2

[10] = tested on: A549 cells; assay: MTS cell viability, A549; assay type: cell-based, human; conditions: 72 h, 0.0025 to 5 μM, n = 4
Method: as §3, §2

[11] = tested on: A375 cells; assay: MTS cell viability, A375; assay type: cell-based; conditions: 72 h, 0.0025 to 5 μM, n = 4
Method: as §3, §2

[12] = tested on: autophagy in PC-3 cells; assay: Autophagosome formation and autophagic flux in PC-3 cells (LC3-I, LC3-II, p62); assay type: cell-based, Human; conditions: as evidenced by LC3-I
Method: as §4

[13] = tested on: breast and colon cancer cells; conditions: ref [32]; cited from earlier work
From the text: The growing applications of bromine and iodine substituents in anticancer treatment lend ...

[14] = molecular target: LC3B (Homo sapiens) (UniProt Q9GZQ8); conditions: cited from earlier work
[15] = molecular target: LC3B; conditions: eicosapeptide, ref [30]; cited from earlier work
From the text: This small protein sequence consists of four conserved residues that can be succinctly represented as a sequence of “X0–X1–X2–X3”, where X0 represents an aromatic residue (Trp/Phe/Tyr), X1 and X2 can denote any amino acids (often acidic or hydrophobic residues), and X3 signifies a large hydrophobic residue such as Leu, Val, or Ile. Consequently, the LIR domain can be considered a promising starting poi ... || To measure the dissociation constants (Kd) of the peptides on human recombinant His-tagged LC3B protein, MST experiments were carried out on a Monolith NT.115^Pico instrument (see the Materials and Methods section for details). […] The electrostatic interactions between the new peptides and LC3B’s positively charged surface—defined by the residues K49, K51, R69, and R70—correlated with low predicted ΔG* values, explaining their improved ...

Q: With `Cn1cnc(N)c2ncnc1-2` [3-MA, 3-Methyladenine] as the molecule, how does the “effect on chemotherapy efficacy” value ([1]; ref [43],[47],[48]) read?
A: The value was “decreased the chemotherapy efficacy”.

Q: And the “effect on cytotoxic action of Doc” value ([1]; ref [46] Hu and collaborators)?
A: The value was “enhanced the cytotoxic action of Doc”.

Q: And the “effect on cytotoxicity of Doc in PC-3 cells” value [2]?
A: The value was “does not modify the cytotoxicity of Doc in PC-3 cells”.

Q: With `CC[C@H](C)[C@H](NC(=O)[C@H](CC(=O)O)NC(=O)[C@H](Cc1ccc(I)cc1)NC(=O)[C@@H](NC(=O)[C@H](C)NC(=O)[C@@H](N)CC(=O)O)C(C)C)C(=O)N[C@@H](CCSC)C(=O)N[C@H](C(=O)N[C@H]1CSSC[C@@H](C(=O)O)NC(=O)[C@H](CCC(=O)O)NC(=O)[C@H](CCC(=O)O)NC1=O)[C@@H](C)O` [AM10] as the molecule, how does the “Response Amplitude (RA)” value [3] read?
A: Its value is 2.8.

Q: What about the PC-3 cell viability ([4]; MTT, 72 h, 0.0025-5 μM (method), n = 6) of the same molecule?
A: The PC-3 cell viability was “all peptides reduce cell viability in a significant dose-dependent manner starting from the 0.025 mM dose up to the 5 mM dose”.

Q: And the “PC-3 cell viability (Conclusions)” value ([4]; summary statement)?
A: The value was “diminished cell viability”.

Q: And the DU145 cell viability [5]?
A: The DU145 cell viability was “no effect on cell viability”.

Q: What about the “LC3-I and LC3-II expression, 48 h” value ([6]; 5 µM, 48 h) of the same molecule?
A: Its value is “significantly reduced the level of LC3-I and LC3-II”.

Q: What about the “LC3-I and LC3-II expression, 72 h” value ([6]; 72 h) of the same molecule?
A: The value was “retains the ability to inhibit both LC3-I and LC3-II”.

Q: And the “LC3-I / LC3-II expression, Doc/AM10 experiment” value ([6]; 48 h)?
A: Its value is “reduces the expression of both LC3-I and LC3-II”.

Q: And the p62 expression [7]?
A: The p62 expression was “the expression of p62 increases significantly”.

Q: What about the “cleaved caspase-3 / apoptosis” value [8] of the same molecule?
A: The value was “does not induce caspase-3 activation”.

Q: What about the MCF-7 cell viability [9] of the same molecule?
A: The MCF-7 cell viability was “concentration-dependent reduction in cell viability”.

Q: And the A549 cell viability [10]?
A: Its A549 cell viability is “concentration-dependent reduction in cell viability”.

Q: And the A375 cell viability [11]?
A: Its A375 cell viability is “concentration-dependent reduction in cell viability”.

Q: And the “autophagosome formation and autophagic flux (Conclusions)” value [12]?
A: The value was “inhibited autophagosome formation and autophagic flux”.

Q: Which “PC-3 cell viability, Docetaxel” value ([4]; MTT, 48 h, 1-100 nM) does the source give for `CC(=O)O[C@@]12CO[C@@H]1C[C@H](O)[C@@]1(C)C(=O)[C@H](O)C3=C(C)[C@@H](OC(=O)[C@H](O)[C@@H](NC(=O)OC(C)(C)C)c4ccccc4)C[C@@](O)([C@@H](OC(=O)c4ccccc4)[C@H]21)C3(C)C` [Doc, Docetaxel, reference compound] here?
A: Its value is “significant reduction in cell viability at concentrations of 10 nM, 25 nM, 50 nM, and 100 nM, with a dose-dependent effect”.

Q: What about the “LC3-I / LC3-II expression, Doc/AM10 experiment” value ([6]; 48 h) of the same molecule?
A: Its value is “significant increase in LC3-II expression”.

Q: And the “cleaved caspase-3 / apoptosis” value [8]?
A: Its value is “trigger apoptotic cell death by activating the executor caspase-3”.

Q: Which “cytotoxic effects against breast and colon cancer cells” value [13] does the source give for `Cc1ccc(S(=O)(=O)[N-]Br)cc1.[Na+]` [bromamine T] here?
A: The value was “strong cytotoxic effects against breast and colon cancer cells”.

Q: For FYCO1-LIR peptide, which Kd [14] is on record?
A: The Kd was 3100 nM.

Q: With RDDAV2DIITDEEαCQIQEW [Comb1] as the molecule, how does the Kd [15] read?
A: The Kd was 120 nM.
